From patent US20030138946A1 come the findings set out here.

“And” between values parts separate entries of the source, which are not always exact repeats. Equal values may be shown once. Ends that are not written are not given here.

In assay [1] the test system is HLA B27. In words: Peptide-induced thermostabilization of HLA B27 on Drosophila cells (W6/32 cytofluorimetry). Type of assay: cell-based, human. The protocol: Twenty-four hours prior to FACS analysis, CuSO4 is added to the stably transfected S2 cells (3-4×10^6 cells/ml) to a final concentration of 1 mM, thereby “switching on” expression from the transfected genes. Cells are plated out in 24-well cluster dishes (2 ml per well). Eight hours prior to FACS analysis, the CuSO4 medium is replaced with fresh medium (1 ml) with or without peptide at a concentration of 50 μg/ml. 37° C. temperature challenges are carried out by transferring the dishes onto a flat surface in a 37° C. room at various time intervals prior to harvesting the cells for analysis.
To analyze surface expression of Class I MHC on the S2 cells, aliquots of cells (5×10^5) are transferred into tubes on ice, collected by centrifugation (1,000×g for 4 minutes), resuspended in 3 ml of PBS/1% BSA, 0.02% sodium azide, collected by centrifugation and resuspended in PBS/BSA (0.5 ml) containing the appropriate primary antibody (ascites fluids Y3, 28:14:8S, 30.5.7, W6/32, diluted 1:200). Rabbit antisera are diluted 1:500 and B22.293 hybridoma supernatant is used directly. After a one hour incubation on ice, cells are washed twice in 3 ml of PBS/BSA and resuspended in 0.5 ml of PBS/BSA containing FITC labeled secondary antibody (Cappell, Durham, N.C.) and 1 ng/ml propidium iodide. […] Samples are then analyzed by FACS 440 (Becton Dickinson). […]

Assay [2] concerns B3/CD8 T-cell hybridoma. Briefly: Antigen presentation assay with B3/CD8 T-cell hybridoma (IL-2 via CTLL 3H thymidine). Type of assay: cell-based, murine. The conditions noted are these: peptide added to culture medium or protein osmotically loaded. How it is done: Osmotic loading of SC2 and 3T3 cells with ovalbumin protein was carried out as described by Moore, et al., Cell 54: 777-785 (1988). The assay procedure is as follows. In a 96-well dish, 1×10^5 Drosophila cells (with or without peptide/protein loaded) or 3T3 cells were cocultured with 1×10^5 B3/CD8 T-cell hybridoma cells in 200 μl of RPMI media supplemented with 10% fetal bovine serum. After 24 hours of incubation, 100 μl of the supernatant from these cultures was added to 100 μl of RPMI containing 5,000 CTLL cells. The cells were cocultured for 24 hours at 37° C. when 1 uCi of ^3H thymidine (Amersham) was added. After a further incubation of 15 hours at 37° C., the incorporation of radiolabel into the CTLL cells was determined by scintillation counting.
Assays conducted with murine MHC also verified that the insect cells are capable of loading peptide onto the Class I molecules. Cells expressing as few as 200-500 MHC molecules containing a particular antigen can be detected by a T-cell. […] Upon antigenic stimulation, B3/CD8 produces IL-2, measured by ^3H thymidine incorporation in IL-2-dependent T-cell line CTLL (Gillis, et al., J. Immunol. 120: 2027 91978)). Thus, by measuring the amount of IL-2 produced, one can assay for T-cell recognition. […]

Assay [3] concerns the target L^d molecules complexed with QL9 peptide, on the cell surface (mouse) (UniProt P01887).
Assay [4] deals with recombinant biotinylated L^d immobilized on an avidin-coated support, with QL9 peptide (mouse) (UniProt P01897).
Chain of recombinant biotinylated L^d immobilized on an avidin-coated support, with QL9 peptide (mouse) (P01897 25-309): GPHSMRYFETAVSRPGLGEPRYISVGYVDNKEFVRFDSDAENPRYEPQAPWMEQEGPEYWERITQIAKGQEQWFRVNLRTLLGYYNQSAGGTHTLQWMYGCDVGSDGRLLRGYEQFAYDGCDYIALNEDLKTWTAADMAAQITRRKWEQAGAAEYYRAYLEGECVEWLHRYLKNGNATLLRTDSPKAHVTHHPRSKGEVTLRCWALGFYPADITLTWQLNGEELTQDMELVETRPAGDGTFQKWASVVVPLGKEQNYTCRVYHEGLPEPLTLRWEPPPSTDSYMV
Assay [5] deals with L^d molecules complexed with QL9 peptide, on the cell surface (mouse) (UniProt P01887). In words: cell-based or functional assay.
Chain of L^d molecules complexed with QL9 peptide, on the cell surface (mouse) (P01897 25-362, one chain of several): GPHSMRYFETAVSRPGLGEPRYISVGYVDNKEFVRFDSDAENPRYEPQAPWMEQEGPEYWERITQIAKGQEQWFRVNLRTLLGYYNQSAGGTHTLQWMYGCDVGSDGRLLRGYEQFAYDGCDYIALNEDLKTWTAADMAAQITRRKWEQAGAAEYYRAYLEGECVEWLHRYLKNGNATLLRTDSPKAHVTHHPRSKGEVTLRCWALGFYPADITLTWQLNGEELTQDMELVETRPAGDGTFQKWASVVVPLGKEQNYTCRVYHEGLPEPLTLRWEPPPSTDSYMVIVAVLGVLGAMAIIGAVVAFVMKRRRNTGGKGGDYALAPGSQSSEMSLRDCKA
The target in assay [6] is L^d molecules complexed with p2Ca peptide, on transfected Drosophila S2 cells (mouse) (UniProt P01887). In words: cell-based or functional assay.
Chain of L^d molecules complexed with p2Ca peptide, on transfected Drosophila S2 cells (mouse) (P01897 25-362, one chain of several): as above
The test system of assay [7] is CD8^+ 2C lymph node cells. Briefly: Primary proliferative response of CD8+ 2C lymph node cells to peptides presented by transfected fly cells (3HTdR). The conditions noted are these: peptide 10 μM. The assay is classed as cell-based, mouse. How it is done: (§1) Using a standard tissue culture system (Cai, Z. and Sprent, J. (1994) J. Exp. Med. 179: 2005-2015), doses of 5×10^4 purified CD8^+ 2C lymph node (LN) cells were cultured at 37° C. with doses of 3×10^5 transfected fly cells ±peptides (10 μM final concentration). Peptides were synthesized by R. W. Johnson Pharmaceutical Research Institute (Sykulev, et al. (1994) Immunity 1: 15-22. Proliferative responses were measured by adding ^3HTdR (1 μCi/well) 8 hours prior to harvest. IL-2 production was measured by removing supernatants from the cultures at 48 hours and adding 50 μl supernatant to an IL-2 responsive indicator cell line (CTLL); proliferation of the indicator line was measured by addition of ^3HTdR. The data shown in Table 2 are the means of triplicate cultures. The transfected Drosophila S2 cells die rapidly at 37° C. and fail to incorporate ^3HTdR at this temperature.

For assay [8], the system named is CD8^+ 2C lymph node cells. In words: IL-2 production by CD8+ 2C lymph node cells (CTLL indicator line 3HTdR). Type of assay: cell-based, mouse. The conditions noted are these: peptide 10 μM. How it is done:
as §1

Assay [9] relates to CD8^+ 2C cells. Briefly: CD69 and CD25 expression on CD8+ 2C cells stimulated with transfected Drosophila cells plus peptide. Type of assay: cell-based, mouse. The conditions noted are these: Drosophila cells expressing L^d alone; peptide 10 μM, 12 hours. The protocol: TCR stimulation elicited a complex pattern of intracellular events which lead to early up-regulation of CD69 and CD25 (IL-2 receptor or IL-2R) on the cell surface. These changes are apparent within a few hours of stimulation and are followed by cytokine synthesis and cell proliferation. Drosophila cells were transfected with genes for L^d, L^d and B7.1 (L^d.B7), L^d and ICAM-1 (L^d.ICAM) or L^d, B7.1 and ICAM-1 (L^d.B7.1CAM). […] Purified CD8^+ 2C cells were incubated with various Drosophila cells plus a peptide (either p2Ca or QL9, 10 μM) in bulk (2 ml) culture for 12 hours and then stained for CD69 or CD25. Either p2Ca or QL9 presented by Drosophila cells transfected with L^d.B7, L^d.ICAM or L^d.B7.1CAM were effective in stimulating the up-regulation of CD69 and CD25.

In assay [10] the test system is CD8^+ 2C cells. In words: Dose-response of day 3 proliferation of CD8+ 2C cells to peptides on transfected Drosophila APC. The assay is classed as cell-based, mouse. How it is done:
Responses to p2Ca (above) and QL9 (below) were measured by culturing 5×10^4 purified CD8^+ 2C cells with 2×10^5 Drosophila cells in the presence or absence of the indicated concentrations of peptides for 3 days. [^3H] TdR was added during the last 8 hours of culture; rIL-2 was added at a final concentration of 20 units/ml. The data are the mean of triplicate cultures. When supplemented with exogenous IL-2, however, both peptides stimulated significant proliferative responses at high doses (10 μM). The proliferative responses elicited by QL9 were far stronger than for p2Ca (note the large difference between the scales of x-axes of the upper and the lower panel).
Dose-response relationships for proliferation on day 3 elicited by Drosophila cells transfected with L^d.B7.1CAM and presenting p2Ca peptide were compared to those elicited by Drosophila cells transfected with L^d.B7, L^d.ICAM or L^d.B7.1CAM presenting QL9 peptide. Drosophila APC (2×10^5 cells) were cultured with 5×10^4 CD8^+ 2C cells for three days in the presence or absence of peptides. [^3H] TdR was added during the last 8 hours of culture; no IL-2 was added to the cultures.

In assay [11] the test system is 2C+ T-cells. The assay is classed as cell-based, mouse.
In assay [12] the test system is 2C+ T-cells. In words: Enrichment of 2C+ T-cells from a 1/99 mixture with C57BL/6 CD8+ cells (1B2 staining, flow cytofluorometry). The assay is classed as cell-based, mouse. The protocol:
2C+ T-cells were mixed with total CD8^+ cells from C57BL/6 mice at a 1/99 ratio and cells were cultured with immobilized L^d and anti-CD28 antibody in the presence of peptide QL9. IL-2 was added at day 2 of culture, and subsequently every other day. Cell activation and proliferation was noted, as evidenced by the formation of clumps, presence of enlarged cells that progressively spread in the well. At day 12 of culture, cells were harvested and percentage of cells expressing the 2C T-cell receptor was assessed by staining with the anticlonotypic antibody 1B2 and analysis by flow cytofluorometry: 43% of the cells cultured initially in the presence of peptide QL9 were 2C+, (FIG. 22) whereas 49% of the cells expressed 2C after stimulation with peptide p2Ca (FIG. 23), and 22% with peptide SL9 (FIG. 24). […] Enrichment was observed even with SL9, a peptide that makes a low affinity complex with the 2C T-cell receptor. This method thus can specifically activate and enrich a small subpopulation of antigen specific T-cells out of a heterogenous mixture of T-cells.

Assay [13] addresses T1, soluble H-2 K^b (K^bsol): heterodimer of truncated K^b heavy chain and murine β-2 microglobulin, purified from Drosophila cells (murine), P01901.
T1 chain 1: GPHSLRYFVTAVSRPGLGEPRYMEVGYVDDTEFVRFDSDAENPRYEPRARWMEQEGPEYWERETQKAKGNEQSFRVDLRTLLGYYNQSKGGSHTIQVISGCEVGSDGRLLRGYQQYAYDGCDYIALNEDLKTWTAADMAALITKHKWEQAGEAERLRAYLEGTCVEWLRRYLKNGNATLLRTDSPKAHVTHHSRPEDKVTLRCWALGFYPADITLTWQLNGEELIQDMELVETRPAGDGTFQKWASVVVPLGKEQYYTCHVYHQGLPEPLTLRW
T1 chain 2: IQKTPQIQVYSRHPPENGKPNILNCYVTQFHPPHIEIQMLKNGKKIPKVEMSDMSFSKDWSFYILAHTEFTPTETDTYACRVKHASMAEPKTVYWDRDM

Turning to ILKEPVHGV [HIV POL peptide], the “thermostabilization of HLA B27 surface expression” value in assay [1] is “not B27”.

Regarding “ovalbumin protein: ovalbumin (Sigma Chem. Co.) osmotically loaded into the cells (EQLESIINFEKLTEWTSSNVMEER)”, in assay [2], the “T-cell recognition (IL-2 response) of K^b Drosophila cells” value is recorded as “no recognition”.

Consider “2C T-cell receptor on T-cells of 2C TCR transgenic mice”, for which the percent of the lymphocytes included in rosettes in assay [3] was 30% and 40%; in assay [4] it was 30% and 40%. For the same molecule, the Proliferation (Day 3), ^3HTdR incorporation; fly cells expressing L^d in assay [5] and in [6] was 200 cpm in each case. In addition, the Proliferation (Day 3), ^3HTdR incorporation; fly cells expressing L^d + B7.1 in assay [5] came out at 60900 cpm; in assay [6], 300 cpm. Further, the Proliferation (Day 3), ^3HTdR incorporation; fly cells expressing L^d + ICAM-1 in [5] worked out at 73900 cpm; in assay [6], 1500 cpm.

Regarding FRIGCRHSR [HIV Vpr peptide], the “thermostabilization of HLA B27 surface expression” value in assay [1] is on record as “stabilizes B27”.

Take LSPFPFDL [p2Ca]: the “Proliferation (Day 3) ^3HTdR incorporation, fly cells expressing L^d” value in [7] (APC L^d) was determined as 0.2 cpm × 10^3. Further, the “Proliferation (Day 3) ^3HTdR incorporation, fly cells expressing L^d + B7.1” value in assay [7] (APC L^d + B7.1) is on record as 0.3 cpm × 10^3. Moreover, the “Proliferation (Day 3) ^3HTdR incorporation, fly cells expressing L^d + B7.1 + ICAM-1” value in assay [7] (APC L^d + B7.1 + ICAM-1) is given as 142.0 cpm × 10^3. In addition, in assay [7] (APC L^d + ICAM-1), the “Proliferation (Day 3) ^3HTdR incorporation, fly cells expressing L^d + ICAM-1” value is 1.5 cpm × 10^3. The “Proliferation (Day 3) ^3HTdR incorporation, L^d + B7.1 combined with L^d + ICAM-1” value in [7] (mixture of two APC lines) was 1.5 cpm × 10^3. Moreover, in assay [8] (APC L^d), the “IL-2 Production (Day 2) ^3HTdR incorporation, fly cells expressing L^d” value was determined as 0.2 cpm × 10^3. The “IL-2 Production (Day 2) ^3HTdR incorporation, fly cells expressing L^d + B7.1” value in [8] (APC L^d + B7.1) turned out to be 0.2 cpm × 10^3. In assay [8] (APC L^d + B7.1 + ICAM-1), the “IL-2 Production (Day 2) ^3HTdR incorporation, fly cells expressing L^d + B7.1 + ICAM-1” value is given as 64.6 cpm × 10^3. Besides, in assay [8] (APC L^d + ICAM-1), the “IL-2 Production (Day 2) ^3HTdR incorporation, fly cells expressing L^d + ICAM-1” value is 0.1 cpm × 10^3. Further, in assay [8] (mixture of two APC lines), the “IL-2 Production (Day 2) ^3HTdR incorporation, L^d + B7.1 combined with L^d + ICAM-1” value worked out at 0.3 cpm × 10^3. Besides, the “induction of CD69 and CD25 expression” value in [9] was “barely detectable”. The “proliferation of 2C CD8+ cells” value in [10] (Drosophila cells with L^d alone, no exogenous lymphokines) is “failed”. For the same molecule, the “peptide concentration required for optimal day 3 proliferative response” value in assay [10] (L^d.B7.1CAM APC, no IL-2) is 10 µM. Also, the “activation (mitogenesis) of 2C+ T-cells” value in assay [11] is given as “able to activate”. Further, the “enrichment in specific T-cells after 12 days” value in assay [12] (start 1/99) is given as 49 times. For the same molecule, the “cells expressing the 2C T-cell receptor (2C+) at day 12” value in assay [12] (start 1/99 2C+/total CD8+, immobilized L^d and anti-CD28, IL-2 from day 2) amounted to 49%.

B1: [^125I]VSV-8 (radioiodinated VSV-8 peptide) (peptide)
peptide: RGYVYQGL
modifications: not checked
Molecule B1 came in with a percent of the total labeled peptide able to bind in [13] of 65%.
